From patent US20110124700A1, “SYSTEMS AND METHODS OF CANCER STAGING AND TREATMENT” (priority 2008, published 2011)

How the values were obtained:
Experiment in all cases: sunitinib treatment, viability of NSCLC cell line (IC50)
H358 = type: cell-based
H322C = system: H322C
A549 = type: cell-based
H157 = type: cell-based
H1703 = type: cell-based
H520 = type: cell-based

**Q.** How did the IC50 (H358; Homo sapiens, NCI-H358, H358 cell line, sunitinib) turn out when `CCN(CC)CCNC(=O)c1c(C)[nH]c(/C=C2\C(=O)Nc3ccc(F)cc32)c1C` [sunitinib, N-[2-(diethylamino)ethyl]-5-[(Z)-(5-fluoro-1,2-dihydro-2-oxo-3H-indol-3-ylidine)methyl]-2,4-dimethyl-1H-pyrrole-3-carboxamide] was run?
**A.** The IC50 was > 10 µM.

**Q.** What about the “sensitivity of cell line to sunitinib” value (H358; untransfected H358) of the same compound?
**A.** The value was “resistant (sunitinib resistant (defined solely for the purposes of this example as having IC50>9 μM))”.

**Q.** What about the IC50 (H322C) of the same compound?
**A.** Its IC50 is 9 to 10 µM.

**Q.** What about the “sensitivity of cell line to sunitinib” value (H322C; untransfected H322C) of the same compound?
**A.** Its value is “resistant (sunitinib resistant (defined solely for the purposes of this example as having IC50>9 μM))”.

**Q.** And the IC50 (A549; Homo sapiens, A549 cell line, sunitinib)?
**A.** Its IC50 is > 10 µM.

**Q.** And the “sensitivity of cell line to sunitinib” value (A549; untransfected A549)?
**A.** Its value is “resistant (sunitinib resistant (defined solely for the purposes of this example as having IC50>9 μM))”.

**Q.** And the IC50 (H157; Homo sapiens, NCI-H157, H157 cell line, sunitinib)?
**A.** The IC50 was > 10 µM.

**Q.** What about the “sensitivity of cell line to sunitinib” value (H157; untransfected H157) of the same compound?
**A.** The value was “resistant (sunitinib resistant (defined solely for the purposes of this example as having IC50>9 μM))”.

**Q.** What about the IC50 (H1703; Homo sapiens, NCI-H1703, H1703 cell line, sunitinib) of the same compound?
**A.** Its IC50 is < 0.5 µM.

**Q.** And the “sensitivity of cell line to sunitinib” value (H1703; untransfected H1703)?
**A.** Its value is “sensitive (sunitinib sensitive (defined solely for the purposes of this example as having an IC50<3 μM))”.

**Q.** What about the IC50 (H520; Homo sapiens, NCI-H520, H520 cell line, sunitinib) of the same compound?
**A.** Its IC50 is 1 to 3 µM.

**Q.** What about the “sensitivity of cell line to sunitinib” value (H520; untransfected H520) of the same compound?
**A.** The value was “sensitive (sunitinib sensitive (defined solely for the purposes of this example as having an IC50<3 μM))”.
